17 compounds from patent publication US20230135093A1, “TRIAZOLYL DERIVATIVES AS GABA A ALPHA5 PAM” (Hoffmann-La Roche Inc., priority 2020, published 2023) can be followed below.

Assay [1] addresses T1, h-GABA-A α5β3γ2 (Homo sapiens, UniProt P18507+P31644).
T1 construct: expressed in transfected cells; host or cells: Xenopus laevis oocytes, micro-injected with subunit RNA
Description: [3H]flumazenil competition binding assay on membranes of HEK293 cells expressing GABAA receptors. In outline: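 Competition for [3H]flumazenil (0.5 nM for α5 subunits) was measured at equilibrium (1 h, 4 °C, Krebs-tris buffer pH 7.5) on transiently transfected HEK293 membranes bearing human α5β3γ2 receptors, with 10^−5 M diazepam defining nonspecific binding. Ki values were derived from filtration and scintillation counting, averaged over duplicates.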

For assay [2], the target named is T1, h-GABA-A α5β3γ2. Description: Two-electrode voltage clamp electrophysiology in Xenopus oocytes expressing GABAA receptors (modulation of GABA EC20 current). Type of assay: cell-based. In outline:
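GABA EC20 currents in human α5β3γ2-expressing Xenopus oocytes, voltage-clamped at −80 mV (room temperature, pH 7.4), measured with and without compound at ~30× Ki applied 0.5 min into the second GABA pulse. % modulation = 100×(fold increase−1), taken from the extremum of the current ratio trace; at least 3 oocytes per concentration.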

The mark [3] stands for this setting: Table 1, displacement of [3H]-Flumazenil (0.5 nM), HEK293 cells expressing human receptors, means of two determinations.
The mark [4] stands for this setting: Table 1, % modulation of GABA EC20 = 100*(Fold increase-1).
The mark [5] stands for this setting: Table 1, Xenopus oocytes, GABA EC20, test compound at approximatively 30 fold its Ki.
Where [6] appears, read: Table 2, reference compounds, displacement of [3H]-Flumazenil.
Setting [7] is: Table 2, reference compounds, % modulation of GABA EC20.
[8] abbreviates: Table 2, reference compounds, GABAA α5β3γ2 overexpressing oocytes, GABA EC20.

As for `Cc1ccnn1C1CN(c2cnn(Cc3c(-c4ccc(Cl)cc4F)nnn3C)c(=O)c2)C1` [Example 113, 2-[[5-(4-chloro-2-fluoro-phenyl)-3-methyl-triazol-4-yl]methyl]-5-[3-(5-methylpyrazol-1-yl)azetidin-1-yl]pyridazin-3-one], the Ki at h-GABA-A α5β3γ2 [1] (setting [3]) was found to be 48.5 nM. For the same compound, on h-GABA-A α5β3γ2 [2] (setting [4]), the “Efficacy (GABA) %” value turned out to be 98%. Also, the “Fold increase h-GABA-A α5β3γ2 oocyte” value on h-GABA-A α5β3γ2 [2] (setting [5]) turned out to be 1.98.

At h-GABA-A α5β3γ2 [1] (setting [3]), `COc1ncc(-c2cnn(Cc3c(-c4ccc(C)nn4)nnn3C)c(=O)c2)cc1Cl` [Example 114, 5-(5-chloro-6-methoxy-3-pyridyl)-2-[[3-methyl-5-(6-methylpyridazin-3-yl)triazol-4-yl]methyl]pyridazin-3-one] registered a Ki of 3.6 nM. The “Efficacy (GABA) %” value at h-GABA-A α5β3γ2 [2] (setting [4]) is 154%.

On to `CCOC1CN(c2cnn(Cc3c(-c4ncc(C(F)(F)F)cn4)nnn3C)c(=O)c2)C1` [Example 115, 5-(3-ethoxyazetidin-1-yl)-2-[[3-methyl-5-[5-(trifluoromethyl)pyrimidin-2-yl]triazol-4-yl]methyl]pyridazin-3-one], for which, at h-GABA-A α5β3γ2 [1] (setting [3]), the Ki amounted to 47.4 nM. For the same compound, the “Efficacy (GABA) %” value at h-GABA-A α5β3γ2 [2] (setting [4]) came out at 74%. Further, the “Fold increase h-GABA-A α5β3γ2 oocyte” value at h-GABA-A α5β3γ2 [2] (setting [5]) was 1.74.

`CC(C)OC1CN(c2cnn(Cc3c(-c4ncc(C(F)(F)F)cn4)nnn3C)c(=O)c2)C1` [Example 116, 5-(3-isopropoxyazetidin-1-yl)-2-[[3-methyl-5-[5-(trifluoromethyl)pyrimidin-2-yl]triazol-4-yl]methyl]pyridazin-3-one] showed a Ki at h-GABA-A α5β3γ2 [1] (setting [3]) of 66.1 nM. The “Efficacy (GABA) %” value at h-GABA-A α5β3γ2 [2] (setting [4]) amounted to 48%. The “Fold increase h-GABA-A α5β3γ2 oocyte” value on h-GABA-A α5β3γ2 [2] (setting [5]) stood at 1.48.

Compound `Cn1nnc(-c2ncc(C(F)(F)F)cn2)c1Cn1ncc(N2CC(OC3CCC3)C2)cc1=O` [Example 117, 5-[3-(cyclo-butoxy)azetidin-1-yl]-2-[[3-methyl-5-[5-(trifluoromethyl)pyrimidin-2-yl]triazol-4-yl]methyl]pyridazin-3-one] had an inhibition constant (Ki) at h-GABA-A α5β3γ2 [1] (setting [3]) of 52.7 nM. For the same compound, the “Efficacy (GABA) %” value at h-GABA-A α5β3γ2 [2] (setting [4]) came to 87%. For the same compound, the “Fold increase h-GABA-A α5β3γ2 oocyte” value at h-GABA-A α5β3γ2 [2] (setting [5]) came out at 1.87.

In turn, `COc1ncc(-c2cnn(Cc3c(-c4ncc(C(F)(F)F)cn4)nnn3C)c(=O)c2)cc1Cl` [Example 118, 5-(5-chloro-6-methoxypyridin-3-yl)-2-((1-methyl-4-(5-(trifluoromethyl)pyrimidin-2-yl)-1H-1,2,3-triazol-5-yl)methyl)pyridazin-3(2H)-one] had a Ki on h-GABA-A α5β3γ2 [1] (setting [3]) of 15.4 nM. Moreover, the “Efficacy (GABA) %” value at h-GABA-A α5β3γ2 [2] (setting [4]) stood at 135%. Also, on h-GABA-A α5β3γ2 [2] (setting [5]), the “Fold increase h-GABA-A α5β3γ2 oocyte” value stood at 2.35.

As to `Cn1nnc(-c2ncc(C(F)(F)F)cn2)c1Cn1ncc(N2CC(OCC(F)F)C2)cc1=O` [Example 119, 5-[3-(2,2-difluoro-ethoxy)azetidin-1-yl]-2-[[3-methyl-5-[5-(trifluoromethyl)pyrimidin-2-yl]triazol-4-yl]methyl]pyridazin-3-one], on h-GABA-A α5β3γ2 [1] (setting [3]), the Ki was 29.6 nM. Also, the “Efficacy (GABA) %” value at h-GABA-A α5β3γ2 [2] (setting [4]) is reported as 86%. In addition, the “Fold increase h-GABA-A α5β3γ2 oocyte” value at h-GABA-A α5β3γ2 [2] (setting [5]) is 1.86.

In the case of `Cn1nnc(-c2ncc(C(F)(F)F)cn2)c1Cn1ncc(N2CC(OCC(F)(F)F)C2)cc1=O` [Example 120, 2-[[3-methyl-5-[5-(trifluoromethyl)pyrimidin-2-yl]triazol-4-yl]methyl]-5-[3-(2,2,2-trifluoro-ethoxy)azetidin-1-yl]pyridazin-3-one], affinity on h-GABA-A α5β3γ2 [1] (setting [3]) was put at a Ki of 27 nM. Moreover, at h-GABA-A α5β3γ2 [2] (setting [4]), the “Efficacy (GABA) %” value is 78%. For the same compound, the “Fold increase h-GABA-A α5β3γ2 oocyte” value on h-GABA-A α5β3γ2 [2] (setting [5]) was found to be 1.78.

In the case of `Cn1nnc(-c2ncc(C(F)(F)F)cn2)c1Cn1ncc(N2CC(OC(F)F)C2)cc1=O` [Example 121, 5-[3-(difluoromethoxy)azetidin-1-yl]-2-[[3-methyl-5-[5-(trifluoromethyl)pyrimidin-2-yl]triazol-4-yl]methyl]pyridazin-3-one], on h-GABA-A α5β3γ2 [1] (setting [3]), the Ki was determined as 24.8 nM. Also, the “Efficacy (GABA) %” value on h-GABA-A α5β3γ2 [2] (setting [4]) came to 89%. The “Fold increase h-GABA-A α5β3γ2 oocyte” value on h-GABA-A α5β3γ2 [2] (setting [5]) came out at 1.89.

The compound `CCn1nnc(-c2ccc(Cl)cc2F)c1Cn1ncc(N2CC3(CC[C@@H](C)CO3)C2)cc1=O` [Example 122, (R)-2-((4-(4-chloro-2-fluorophenyl)-1-ethyl-1H-1,2,3-triazol-5-yl)methyl)-5-(7-methyl-5-oxa-2-azaspiro[3.5]nonan-2-yl)pyridazin-3(2H)-one] gave a Ki at h-GABA-A α5β3γ2 [1] (setting [3]) of 55.5 nM. Also, the “Efficacy (GABA) %” value on h-GABA-A α5β3γ2 [2] (setting [4]) was 141%. Besides, at h-GABA-A α5β3γ2 [2] (setting [5]), the “Fold increase h-GABA-A α5β3γ2 oocyte” value stood at 2.41.

At h-GABA-A α5β3γ2 [1] (setting [3]), `COc1ncc(-c2cnn(Cc3c(-c4ccc(C(F)(F)F)nn4)nnn3C)c(=O)c2)cc1Cl` [Example 123, 5-(5-chloro-6-methoxypyridin-3-yl)-2-((1-methyl-4-(6-(trifluoro-methyl)pyridazin-3-yl)-1H-1,2,3-triazol-5-yl)methyl)pyridazin-3(2H)-one] displayed a Ki of 7.6 nM. Also, the “Efficacy (GABA) %” value on h-GABA-A α5β3γ2 [2] (setting [4]) amounted to 148%. Besides, the “Fold increase h-GABA-A α5β3γ2 oocyte” value on h-GABA-A α5β3γ2 [2] (setting [5]) amounted to 2.48.

For `CCn1nnc(-c2ccc(Cl)cc2F)c1Cn1ncc(N2CC3(CC[C@H](F)CO3)C2)cc1=O` [Example 124, (S)-2-((4-(4-chloro-2-fluorophenyl)-1-ethyl-1H-1,2,3-triazol-5-yl)methyl)-5-(7-fluoro-5-oxa-2-azaspiro[3.5]nonan-2-yl)pyridazin-3(2H)-one], the Ki at h-GABA-A α5β3γ2 [1] (setting [3]) stood at 10.2 nM. Also, at h-GABA-A α5β3γ2 [2] (setting [4]), the “Efficacy (GABA) %” value turned out to be 105%. In addition, the “Fold increase h-GABA-A α5β3γ2 oocyte” value at h-GABA-A α5β3γ2 [2] (setting [5]) came out at 2.05.

Consider `CCn1nnc(-c2ccc(Cl)cc2F)c1Cn1ncc(N2CC3(CC[C@@H](F)CO3)C2)cc1=O` [Example 125, (R)-2-((4-(4-chloro-2-fluorophenyl)-1-ethyl-1H-1,2,3-triazol-5-yl)methyl)-5-(7-fluoro-5-oxa-2-azaspiro[3.5]nonan-2-yl)pyridazin-3(2H)-one], for which the affinity at h-GABA-A α5β3γ2 [1] (setting [3]), expressed as Ki, was 25.3 nM. Moreover, the “Efficacy (GABA) %” value at h-GABA-A α5β3γ2 [2] (setting [4]) came to 69%. For the same compound, the “Fold increase h-GABA-A α5β3γ2 oocyte” value at h-GABA-A α5β3γ2 [2] (setting [5]) came out at 1.69.

With `Cn1nnc(-c2ccc(Cl)cc2F)c1Cn1ncc(N2CC3(CC[C@H](F)CO3)C2)cc1=O` [Example 126, (S)-2-((4-(4-chloro-2-fluorophenyl)-1-methyl-1H-1,2,3-triazol-5-yl)methyl)-5-(7-fluoro-5-oxa-2-azaspiro[3.5]nonan-2-yl)pyridazin-3(2H)-one], affinity at h-GABA-A α5β3γ2 [1] (setting [3]) was put at a Ki of 17.5 nM. Also, on h-GABA-A α5β3γ2 [2] (setting [4]), the “Efficacy (GABA) %” value was determined as 61%. Further, at h-GABA-A α5β3γ2 [2] (setting [5]), the “Fold increase h-GABA-A α5β3γ2 oocyte” value was determined as 1.61.

For the compound `Cn1nnc(-c2ccccc2F)c1COc1ccc(-n2cnc(C(F)F)c2)nn1` [RO-007, reference compound], at h-GABA-A α5β3γ2 [1] (setting [6]), the Ki came out at 58.4 nM. At h-GABA-A α5β3γ2 [2] (setting [7]), the “Efficacy (GABA) %” value was −28%. The “Fold increase h-GABA-A α5β3γ2 oocyte” value at h-GABA-A α5β3γ2 [2] (setting [8]) amounted to 0.72.

In turn, `Cn1nnc(-c2ccc(F)cc2)c1COc1ccc(C(=O)NN2CCOCC2)nn1` [RO-045, reference compound] displayed a Ki at h-GABA-A α5β3γ2 [1] (setting [6]) of 53.2 nM. On h-GABA-A α5β3γ2 [2] (setting [7]), the “Efficacy (GABA) %” value is recorded as −38%. For the same compound, on h-GABA-A α5β3γ2 [2] (setting [8]), the “Fold increase h-GABA-A α5β3γ2 oocyte” value was found to be 0.62.

In the case of `Cn1nnc(-c2ccc(F)cn2)c1COc1ccc(C(=O)NN2CCOCC2)nn1` [RO-052, reference compound], the Ki at h-GABA-A α5β3γ2 [1] (setting [6]) worked out at 33.4 nM. Also, at h-GABA-A α5β3γ2 [2] (setting [7]), the “Efficacy (GABA) %” value is listed as −15%. For the same compound, the “Fold increase h-GABA-A α5β3γ2 oocyte” value on h-GABA-A α5β3γ2 [2] (setting [8]) is listed as 0.85.
